Assay results published in patent US5126347A, “Isomeric dideoxynuclesides” (Hoffmann-La Roche Inc., priority 1989, dated 1992).

Legend:
HIV (HTLV-III) = experiment: HIV-cytopathic Effect Inhibition Assay; assay type: cell-based; conditions: survival of drug treated target cells with HIV (HTLV-III), seven days; FIGS. 1 to 3
Method: Compounds I and II were tested in the HIV-cytopathic Effect Inhibition Assay as described in the publication by Mitsuya, et al. Proc. Nat'l Acad. Sci., USA, 83:1911 (1986), which publication is hereby incorporated by reference.
The cells were exposed to either Compound I, Compound II, or AZT, and the survival of drug treated target cells determined seven days thereafter.
The black bars represent survival of compound treated target cells when HIV (HTLV-III) is added. The light bars represent survival of compound treated target cells in the absence of virus.

HIV, HTLV III; RF strain = experiment: HIV antigen capture ELISA, virus growth in CD4+ T-lymphocytes; assay type: cell-based; conditions: C8166 CD4+ T-cell line; for IC50: Human immunodeficiency virus 1, T-lymphocyte, supernatant antigen at 72 hours post-infection
Method: The Enzyme Linked Immuno-absorbent Assay (ELISA) was used to test compounds I and II for anti-HIV activity by measuring virus growth in CD4^+ T-lymphocytes by detecting antigen released into the tissue culture supernatant of infected cells.
High titre virus stocks [HIV, HTLV III; RF strain] were grown in H9 cells in RPMI 1640 (Flow Laboratories) supplemented with 10% fetal calf serum, penicillin (100 IU/ml) and streptomycin (100 ug/ml). Cell debris was removed by low speed centrifugation and the supernatant stored at -70° C. until required. The host cell line used in the antiviral assays was the C8166 CD4^+ T-cell line which is particularly susceptible to infection with HIV. Cells were incubated with 10 TCID50, HIV/HTLV III(RF) at 37° C. for 90 minutes and then washed three times with PBSA. Cell aliquots (2×10^5) were resuspended in 1.5 ml growth medium in 6 ml tubes and incubated at 37° C. At 72 hours post-infection, the supernatants from the cell cultures were assayed immediately for HIV antigen.
The antigen capture ELISA used was purchased from Coulter (Luton, UK). The assays were carried out on supernatants taken from infected cell cultures using the steps described by the manufacturers. In each assay the corresponding positive and negative internal controls were included together with a supernatant control taken from uninfected cells. The plates were read using the appropriate spectrophotometric detection system.

| SMILES | anti-HIV activity relative to known antiretroviral therapeutics (AZT) (HIV (HTLV-III)) | antiviral activity in this test system, compared to ddA (HIV, HTLV III; RF strain; antigen ELISA) | IC50 (HIV, HTLV III; RF strain) [nM] |
| --- | --- | --- | --- |
| Nc1ncnc2c1ncn2[C@H]1CO[C@@H](CO)C1 [Compound I, (2R-cis)-4-(6-Amino-9H-purin-9-yl)tetrahydro-2-furanmethanol] | equivalent to that of antiretroviral therapeutics known to have in vivo activity against HIV, most particularly AZT | comparable to that of a known anti-HIV agent ddA | 3000 to 10000 |
| Nc1nc2c(ncn2[C@H]2CO[C@@H](CO)C2)c(=O)[nH]1 [Compound II] | equivalent to that of antiretroviral therapeutics known to have in vivo activity against HIV, most particularly AZT | – | – |
| Nc1ncnc2c1ncn2[C@H]1CC[C@@H](CO)O1 [ddA, 2',3'-dideoxyadenosine, reference compound] | – | – | 1000 to 3000 |
